The results in this text go back to PubChem BioAssay (NCI).

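Growth conditions: 96-well plates. Treatment: test compound, 48 hours, 5 concentrations. Analysis: linear interpolation between bracketing concentrations; unreached endpoints set to highest concentration. GI50: concentration for 50% inhibition of growth. The concentration for full growth arrest is given as TGI.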

Holding throughout (assay): NCI tumour cell line growth inhibition, 48 h
Experiment [1] relates to EKVX NSCLC.
The test system of experiment [2] is HL-60(TB) leukemia.
Experiment [3] relates to HOP-92 NSCLC.
Experiment [4] has as its system OVCAR-5 ovarian.
Experiment [5] deals with SK-OV-3 ovarian.
The subject of experiment [6] is SN12C renal.
Experiment [7] relates to SNB-19 CNS.
Experiment [8] deals with COLO 205 colon.
In experiment [9] the test system is HS 578T breast.

Take `O=c1nc(N2CCCC2)nc(N2CCCC2)s1`: the TGI in experiment [1], in experiment [2], in experiment [3], in experiment [4], in [5] and in experiment [6] was above 100 µM each time. The compound further displayed a TGI in experiment [7] above 100 µM.
In the case of `OCCCc1cnco1`, the TGI in experiment [8], in experiment [1], in [2], in experiment [3], in experiment [4] and in experiment [5] was above 100 µM each time. Further, the TGI in experiment [6] and in [7] was above 100 µM throughout.
As for `CC(=O)N(CCN1C(=O)c2ccccc2C1=O)CCN1C(=O)c2ccccc2C1=O`, the TGI in [8], in experiment [1], in experiment [2], in experiment [3], in experiment [5] and in experiment [6] was above 100 µM each time. In experiment [7], this compound displayed a TGI above 100 µM.
For the compound `C=C1C(=O)c2cc3c(cc2C(c2cc(OC)c(OC)c(OC)c2)[C@@H]1C(=O)O)OCO3` (some centres not stated), the TGI was above 100 µM in experiment [8]; above 100 µM in [1]; 75.4 µM in experiment [3]; above 100 µM in experiment [5]; above 100 µM in experiment [6].
Regarding `O=C(Cc1ccccc1)N/N=C(/c1nc2ccc([N+](=O)[O-])cc2[nH]c1=O)C(O)c1ccccc1Cl` (configuration not stated), the TGI in [8], in experiment [1], in experiment [2], in experiment [3], in experiment [4] and in experiment [5] was above 100 µM in each case. The same compound displayed a TGI in experiment [6] above 100 µM.
Regarding `CC(=O)OCC1OC([Se-])C(OC(C)=O)C(OC(C)=O)C1OC(C)=O.N#CCC[PH+](CCC#N)CCC#N.[Au+]` (configuration not stated), the GI50 is 17.6 µM in experiment [8]; 3.12 µM in [1]; 1.87 µM in [2]; 12.1 µM in experiment [3]; 9.81 µM in experiment [4]; 37.1 µM in experiment [5]. The GI50 in experiment [6] is 6.33 µM; in experiment [7], 10.9 µM. The TGI in [8] was above 100 µM; in experiment [1], 8.21 µM; in experiment [2], 4.31 µM; in experiment [3] it was 52.2 µM; in experiment [4], 41.9 µM; in [5], above 94.6 µM. Further, the TGI in [6] is 31.9 µM; in experiment [7], above 77.9 µM.
For the compound `O=C(c1cccs1)c1nc2cc(Cl)ccc2[n+]([O-])c1C(F)(F)F`, the GI50 in [8] was above 100 µM; in [1], 51.8 µM; in experiment [2], above 100 µM; in experiment [9] it was above 100 µM; in [4], above 100 µM; in experiment [5], above 100 µM. For the same compound, the GI50 in experiment [6] and in [7] was above 100 µM each time. Also, the TGI in [8], in experiment [1], in [2], in experiment [9], in [4] and in [5] was above 100 µM in each case. In addition, the TGI in [6] and in experiment [7] was above 100 µM in each case.
As to `COc1cc(C2C(C(=O)O)=C(COC(C)=O)Oc3cc4c(cc32)OCO4)cc(OC)c1OC(C)=O` (configuration not stated), the TGI in experiment [8], in experiment [1], in [2], in [3], in [5] and in experiment [6] was above 100 µM throughout. The compound also yielded a TGI in experiment [7] above 100 µM.
On to `O=C(N/C=C/C=C/Sc1ccccc1)OCc1ccccc1`, for which the TGI is 31.6 µM in [8]; 53.6 µM in experiment [1]; above 100 µM in experiment [2]; 52.7 µM in experiment [3]; 33.1 µM in experiment [4]; 64.6 µM in [5]. For the same compound, the TGI in experiment [6] is 31.6 µM; in experiment [7] it was above 100 µM.
For the compound `NC(CO)c1ccc(OCc2ccccc2)cc1` (configuration not stated), the TGI in experiment [8] is above 100 µM; in experiment [1] it was above 100 µM; in [2] it was above 100 µM; in experiment [3], 98.1 µM; in experiment [4], above 100 µM; in experiment [5] it was above 100 µM. Besides, the TGI in experiment [6] and in experiment [7] was above 100 µM each time.
As to `O=[N+]([O-])c1ccc(/C(Cl)=C/c2ccc(/C=C(\Cl)c3ccc([N+](=O)[O-])cc3[N+](=O)[O-])cc2)c([N+](=O)[O-])c1`, the TGI in [8], in experiment [1], in [2], in [3], in [4] and in experiment [5] was above 100 µM throughout. Moreover, in experiment [6], the TGI is above 100 µM.
For the compound `COC1=CC(=O)OC(/C=C(C)/C=C/C2=C(C)CCCC2(C)C)C1` (configuration not stated), the TGI in experiment [1], in experiment [2], in experiment [3], in experiment [4], in experiment [5] and in experiment [6] was above 100 µM throughout. This compound also displayed a TGI in experiment [7] above 100 µM.
In the case of `CN(C)c1ccc(/C=c2\sc3nnc(-c4cccnc4)n3c2=O)cc1`, the TGI in experiment [8], in experiment [1], in experiment [2], in [3], in experiment [4] and in experiment [5] was above 100 µM in each case. The TGI in experiment [6] and in [7] was above 100 µM in each case.
With `CCc1nc2ccccc2c(=O)n1/N=C(\N=Nc1ccc(Cl)cc1)c1ccccc1`, the TGI in [8] is above 100 µM; in experiment [1] it was 75.2 µM; in experiment [2] it was above 100 µM; in experiment [3], 46.2 µM; in experiment [4], above 100 µM; in [5], 62 µM. Moreover, the TGI in experiment [6] was above 100 µM; in experiment [7], 82.6 µM.
In the case of `CCCCN(CCCC)CC(C(=O)Nc1ccc([N+](=O)[O-])cc1[N+](=O)[O-])/C(C)=N\NC(=O)C[N+](C)(C)C` (configuration not stated), the TGI in experiment [8], in [1], in [2], in experiment [3], in [4] and in experiment [5] was above 100 µM throughout. The TGI in experiment [6] and in experiment [7] was above 100 µM in each case.
